Reference: patent publication US20260242418A1, “CYCLIC PEPTIDES WITH ANTIBACTERIAL ACTIVITY AGAINST MULTIDRUG RESISTANT (MDR) PATHOGENS” (priority 2022, published 2026)
Converted amounts (≈) assume the structure as drawn.

How the values were obtained:
Format in all cases: cell-based
Enterococcus faecium = conditions: 22 strains (11/22 VRE)
From the text: (§1) The Minimum Inhibitory Concentration (MIC) of PLP-3 peptide (SEQ D NO: 4) against a collection of clinically relevant Gram-positive bacterial strains was obtained via broth microdilution. The tested species Staphylococcus aureus, Enterococcus faecium and Enterococcus faecalis. The followed protocol was based on the Clinical & Laboratory Standards Institute (CLSI) and EUCAST Guidelines.
(§2) In these tests, MIC is the value defined as the lowest concentration of an antimicrobial which inhibits the macroscopic growth of a bacterial strain after 16-20 hours of incubation at 37° C. The results of this assay were obtained by visual identification of bacterial growth at the bottom of each well plate. Since the wells contained decreasing concentrations of the peptide, the final result was indicated as a concentration, MIC, expressed in μg/mL of the PLP-3.
(§3) Bacterial strains were streaked in Columbia Agar plates (Columbia Agar with 5% Sheep Blood 90 mm Stacker plates, Becton Dickinson) and incubated overnight at 37° C. Polypropylene round bottomed 96-well plates were filled with 50 μL/well of Cation Adjusted Mueller-Hinton Broth (CAMHB, 90922, 500 g, Sigma-Aldrich) and 50 μL of PLP-3 (at 4 times higher the chosen initial concentration of the test) were added to the first well of each row of the plate followed by 1:2 serial dilutions up until the 10th column of the plate. The 11th and 12th columns were used for positive and negative growth controls.
(§4) Stain inoculums were standardized by preparing a 1:100 dilution of 0.5 McFarland solutions in CAMHB. Plates were inoculated with 50 μL of the diluted inoculums and covered with an adhesive film before 16-20 hours of incubation at 37° C.
(§5) Two biological and two technical replicates were performed per strain.
(§6) Broth microdilution testing from a panel of clinical strains of each specie provided MIC50 and […] values (Table 7). Strains were either from clinical origin, relevant to current clinical situation, or commercially available strains belonging to the American Type Culture Collection (ATCC), S. aureus 29213. Regarding clinical strains collection, 10 out of the 19 S. aureus strains were resistant to methicillin (MRSA), and 11 out of the 22 E. faecium strains were resistant to Vancomycin (VRE).
(§7) MIC50 value represents the antimicrobial concentration value that inhibits the growth of 50% of the bacterial strain panel. […] value represents the antimicrobial concentration value that inhibits the growth of 90% the bacterial strain collection.

Enterococcus faecalis = conditions: 15 strains
From the text: as §1, §2, §3, §4, §5, §6, §7

Staphylococcus aureus = conditions: 19 strains (10/19 MRSA)
From the text: as §1, §2, §3, §4, §5, §6, §7

Pseudomonas aeruginosa = tested on: Pseudomonas aeruginosa
From the text: Minimum Inhibitory Concentration (MIC) of a peptide of SEQ D NO: 4 (abbreviated PLP-3) and colistin against a collection of clinically relevant and commercially available bacterial strains was obtained via broth microdilution. The protocol for antimicrobial activity determination, detailed below, consisted in a modification of Clinical & Laboratory Standards Institute (CLSI) Guidelines.
MIC is the value defined as the lowest concentration of an antimicrobial, in these tests either PLP-3 or colistin, which inhibits the macroscopic growth of a bacterial strain after 18-22 h incubation at 37° C. The results from these assays are obtained via visual identification of the bacterial bottom at the end of the wells of the testing plate. Since the wells contain decreasing concentrations of the compounds, the final result is indicated as a concentration, MIC, expressed in μg/mL of the agent (in this case PLP-3 or colistin).
Bacterial strains were streaked in Columbia Agar plates (Columbia Agar with 5% Sheep Blood 90 mm Stacker plates, BD) and incubated overnight at 37° C. Polypropylene round bottomed 96-well plates were filled with 50 μL/well of Mueller-Hinton Broth (MHB, CM0405, 500 g, ThermoFisher Scientific™ Oxoid™) and 50 μL of either colistin or PLP-3 (at 4× the chosen initial concentration of the test) were added to the first well of each row of the plate followed by serial dilutions up until the 10th column of the plate.
Finally, strain inoculums were prepared by diluting 1:100 0.5 McFarland solutions in MHB. Plates were then inoculated with 50 μL of the inoculums and covered with film before 18 to 22 h incubation at 37 C.
Three biological and three technical replicates were performed per strain.
Broth microdilution testing of 15 strains of each species provided MIC50 and […] values (Table 4). Strains were either from clinical origin, relevant to current clinical situation, or commercially available strains belonging to the American Type Culture Collection (ATCC), namely: A. baumannii 17978 and 19606, K. pneumoniae 13883 and P. aeruginosa 27853.
This panel represents an example of relevant MDR, colistin resistant and colistin susceptible strains from which to compare results. The minimum inhibitory concentration (MIC) is the lowest concentration of a chemical, usually a drug, which prevents visible growth of a bacterium or bacteria. MIC50 represents the antimicrobial concentration value that inhibits the growth of 50% of the bacterial strains and […] of each species from the tested panel of strains. Being colistin both a peptide and a last-resource antibiotic, it was included in these assays for comparison against a commercially available antibiotic.
P. aeruginosa ATCC 27853 strain (commercially available from the American Type Collection Culture) was used as control by performing MICs to colistin and PLP-3 in all broth microdilution assays

[1] = panel of 15 P. aeruginosa strains

Work on `CC(C)C[C@@H]1NC(=O)[C@H](CCCNC(=N)N)NC(=O)[C@H](CCCNC(=N)N)NC(=O)[C@H](CCCNC(=N)N)NC(=O)[C@H]2CCCN2C(=O)[C@H](CCCNC(=N)N)NC(=O)[C@H](CCCNC(=N)N)NC(=O)[C@H](C(C)C)NC(=O)[C@@H]2CSSC[C@H](NC1=O)C(=O)N[C@@H](Cc1ccccc1)C(=O)N[C@@H](C(C)C)C(=O)N[C@@H](CCCNC(=N)N)C(=O)N1CCC[C@@H]1C(=O)N[C@@H](CCCCN)C(=O)N[C@@H](Cc1ccccc1)C(=O)N[C@@H](C(C)C)C(=O)N[C@@H](C(C)C)C(=O)N2` [PLP-3, cyclo[RRRLCFVRPKFVVCVRRP]] yielded an MIC50 (Enterococcus faecium) of 2 µg/mL (≈ 0.882 µM), an MIC90 (Enterococcus faecium) of 2 µg/mL (≈ 0.882 µM) and an MIC50 (Enterococcus faecalis) of 4 µg/mL (≈ 1.76 µM). For the same compound, the MIC90 (Enterococcus faecalis) was 4 µg/mL (≈ 1.76 µM), the MIC50 (Staphylococcus aureus) was 4 µg/mL (≈ 1.76 µM) and the MIC90 (Staphylococcus aureus) was 8 µg/mL (≈ 3.53 µM). The MIC range (Pseudomonas aeruginosa) was 1 to 8 µg/mL, the MIC50 (Pseudomonas aeruginosa; [1]) was 4 µg/mL (≈ 1.76 µM) and the MIC90 (Pseudomonas aeruginosa; [1]) was 8 µg/mL (≈ 3.53 µM).
